pIC50: −log10 of the molar value.

As usually defined, the pIC50 is the IC50 on a negative log10 scale, so that one unit is a factor of ten.

In the assay the target is T1, recombinant full-length human prolyl endopeptidase (PREP) (Homo sapiens, UniProt P48147).
T1 construct: To recombinant full-length human prolyl endopeptidase (PREP, R&D-Systems, 4308-SE); purchased R&D-Systems 4308-SE
T1 sequence (P48147 1-710): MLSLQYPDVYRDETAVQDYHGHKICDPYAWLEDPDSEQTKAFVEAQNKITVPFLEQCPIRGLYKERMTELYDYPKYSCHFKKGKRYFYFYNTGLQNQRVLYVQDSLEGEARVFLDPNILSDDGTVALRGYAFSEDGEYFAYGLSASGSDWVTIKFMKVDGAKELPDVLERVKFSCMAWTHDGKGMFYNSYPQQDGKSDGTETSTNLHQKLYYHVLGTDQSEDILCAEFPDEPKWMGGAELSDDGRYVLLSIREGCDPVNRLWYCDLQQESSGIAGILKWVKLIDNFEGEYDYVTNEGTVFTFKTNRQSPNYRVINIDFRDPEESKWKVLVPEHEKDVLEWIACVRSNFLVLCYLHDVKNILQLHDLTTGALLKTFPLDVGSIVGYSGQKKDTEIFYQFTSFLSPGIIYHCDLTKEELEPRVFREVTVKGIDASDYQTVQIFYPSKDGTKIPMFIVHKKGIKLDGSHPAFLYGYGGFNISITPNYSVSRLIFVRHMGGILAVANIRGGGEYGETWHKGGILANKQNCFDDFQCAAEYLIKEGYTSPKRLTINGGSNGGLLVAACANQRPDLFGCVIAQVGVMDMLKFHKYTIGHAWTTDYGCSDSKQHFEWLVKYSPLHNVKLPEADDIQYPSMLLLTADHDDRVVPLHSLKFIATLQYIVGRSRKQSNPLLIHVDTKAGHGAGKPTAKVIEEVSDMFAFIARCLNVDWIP
In words: Biochemical human prolyl endopeptidase (PREP) assay with fluorescently labelled substrate. The conditions noted are these: substrate Z-Gly-Pro-AMC 50 μM, 32° C., 60 min; some as mean values from multiple independent determinations. In a few lines:
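Initial rates of fluorescence increase from 50 μM Z-Gly-Pro-AMC cleavage (ex 360/em 465 nm, 60 min, 32° C) give percent PREP activity versus no-compound control, and IC50 is interpolated. Enzyme used at 0.4 nM (final, example) in Tris pH 7.5 with EDTA, GSH, BSA and Brij-35; compounds span 1 nM to 30 μM.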
Consider `Cc1ccc(Cn2nc3n(c2=O)[C@H](C(=O)N2CCC[C@H]2C=O)CCC3)cc1` [Example 196, (2S)-1-{[(5S)-2-(4-Methylbenzyl)-3-oxo-2,3,5,6,7,8-hexahydro[1,2,4]triazolo[4,3-a]pyridin-5-yl]carbonyl}pyrrolidine-2-carbaldehyde], for which the pIC50 was 9.40.
Take `O=C(C1CC(C(F)(F)F)Cc2nn(Cc3ccnc(C(F)(F)F)c3F)c(=O)n21)N1C[C@@H](F)[C@@H](F)C1` (single isomer, unassigned) [Example 260]: the pIC50 is 8.59.
For the molecule `O=C([C@@H]1CCCc2nn(Cc3ccc(Cl)c(F)c3)c(=O)n21)N1CCC(F)(F)C1` [Example 464, (5S)-2-(4-Chloro-3-fluorobenzyl)-5-[(3,3-difluoropyrrolidin-1-yl)carbonyl]-5,6,7,8-tetrahydro[1,2,4]triazolo[4,3-a]pyridin-3(2H)-one], the negative-log IC50 (pIC50) is 9.29.
As for `CC1CCC(C(=O)N2CCC(F)(F)C2)n2c1nn(Cc1ccc(F)c(Cl)c1)c2=O` (racemic) [Example 323, (5RS,8RS)-2-(3-Chloro-4-fluorobenzyl)-5-[(3,3-difluoropyrrolidin-1-yl)carbonyl]-8-methyl-5,6,7,8-tetrahydro[1,2,4]triazolo[4,3-a]pyridin-3(2H)-one], the pIC50 was 9.02.
For `Cc1ccc(Cn2nc3n(c2=O)[C@H](C(=O)N2CCCC2)CCC3)cc1` [Example 26, (5S)-2-(4-Methylbenzyl)-5-(pyrrolidin-1-ylcarbonyl)-5,6,7,8-tetrahydro[1,2,4]triazolo[4,3-a]pyridin-3(2H)-one] the value was 9.14.
For `CC1Cc2nn(Cc3ccnc(C(F)(F)F)c3F)c(=O)n2C(C(=O)N2C[C@@H](F)[C@@H](F)C2)C1` (mixture of isomers) [Example 333, (5RS,7RS)-5-{[(3R,4S)-3,4-Difluoropyrrolidin-1-yl]carbonyl}-2-{[3-fluoro-2-(trifluoromethyl)pyridin-4-yl]methyl}-7-methyl-5,6,7,8-tetrahydro[1,2,4]triazolo[4,3-a]pyridin-3(2H)-one], the pIC50 was 8.68.
For the molecule `COc1ccc(Cn2nc3n(c2=O)[C@H](C(=O)N2C[C@@H](F)[C@@H](F)C2)CCC3)nc1` [Example 380, (5S)-5-{[(3R,4S)-3,4-Difluoropyrrolidin-1-yl]carbonyl}-2-[(5-methoxypyridin-2-yl)methyl]-5,6,7,8-tetrahydro[1,2,4]triazolo[4,3-a]pyridin-3(2H)-one], the pIC50 was 8.68.
In the case of `O=C(C1CCCc2nn(CC3CCC(F)(F)CC3)c(=O)n21)N1CCCC1` (racemic) [Example 41, (5RS)-2-[(4,4-Difluorocyclohexyl)methyl]-5-(pyrrolidin-1-ylcarbonyl)-5,6,7,8-tetrahydro[1,2,4]triazolo[4,3-a]pyridin-3(2H)-one], the pIC50 was 7.89.
On to `O=C(C1CC(C(F)(F)F)Cc2nn(Cc3ccc(C(F)(F)F)nc3)c(=O)n21)N1CC[C@H](F)C1` (mixture of isomers) [Example 236, (5RS,7RS)-5-{[(3S)-3-Fluoropyrrolidin-1-yl]carbonyl}-7-(trifluoromethyl)-2-{[6-(trifluoromethyl)pyridin-3-yl]methyl}-5,6,7,8-tetrahydro[1,2,4]triazolo[4,3-a]pyridin-3(2H)-one], for which the pIC50 was 8.85.
In the case of `O=C([C@@H]1CCCc2nn(Cc3ccnc(C(F)(F)F)c3)c(=O)n21)N1CC[C@H](F)C1` [Example 450, (5S)-5-{[(3S)-3-Fluoropyrrolidin-1-yl]carbonyl}-2-{[2-(trifluoromethyl)pyridin-4-yl]methyl}-5,6,7,8-tetrahydro[1,2,4]triazolo[4,3-a]pyridin-3(2H)-one], the pIC50 is 8.96.
On to `O=C([C@@H]1CCCc2nn(Cc3nccc(C(F)(F)F)c3Cl)c(=O)n21)N1CC(F)C1` [Example 389, (5S)-2-{[3-Chloro-4-(trifluoromethyl)pyridin-2-yl]methyl}-5-[(3-fluoroazetidin-1-yl)carbonyl]-5,6,7,8-tetrahydro[1,2,4]triazolo[4,3-a]pyridin-3(2H)-one], for which the pIC50 is 8.84.
Consider `O=C([C@@H]1CCCc2nn(CC3(c4ccc(F)cc4F)CC3)c(=O)n21)N1CCCC1` [Example 530, (5S)-2-{[1-(2,4-Difluorophenyl)cyclopropyl]methyl}-5-(pyrrolidin-1-ylcarbonyl)-5,6,7,8-tetrahydro[1,2,4]triazolo[4,3-a]pyridin-3(2H)-one], for which the pIC50 is 9.66.
Regarding `O=C(C1CCCc2nn(Cc3ccc(F)c(C(F)(F)F)c3)c(=O)n21)N1CCCC1` (racemic) [Example 66], the pIC50 is 9.42.
Regarding `O=C(C1CC(C(F)(F)F)Cc2nn(Cc3ncc(C(F)(F)F)cc3Cl)c(=O)n21)N1CCC(F)(F)C1` (racemic) [Example 564, (5RS,7RS)-2-{[3-Chloro-5-(trifluoromethyl)pyridin-2-yl]methyl}-5-[(3,3-difluoropyrolidin-1-yl)carbonyl]-7-(trifluoromethyl)-5,6,7,8-tetrahydro[1,2,4]triazolo[4,3-a]pyridin-3(2H)-one], the pIC50 is 8.36.
For `Cc1ccc(Cn2nc3n(c2=O)[C@H](C(=O)N2C[C@@H](O)[C@H](F)C2)CCC3)cc1` [Example 183, (5S)-5-{[(3R,4R)-3-Fluoro-4-hydroxypyrrolidin-1-yl]carbonyl}-2-(4-methylbenzyl)-5,6,7,8-tetrahydro[1,2,4]triazolo[4,3-a]pyridin-3(2H)-one] the value was 6.96.
On to `O=C([C@@H]1CCCc2nn(Cc3nccc(C(F)(F)F)c3Cl)c(=O)n21)N1CC(O)C1` [Example 390, (5S)-2-{[3-Chloro-4-(trifluoromethyl)pyridin-2-yl]methyl}-5-[(3-hydroxyazetidin-1-yl)carbonyl]-5,6,7,8-tetrahydro[1,2,4]triazolo[4,3-a]pyridin-3(2H)-one], for which the pIC50 was 7.87.
In the case of `Cc1ccc(Cn2nc3n(c2=O)[C@H](C(=O)N2CC(CF)C2)CCC3)cc1` [Example 146, (5S)-5-{[3-(Fluoromethyl)azetidin-1-yl]carbonyl}-2-(4-methylbenzyl)-5,6,7,8-tetrahydro[1,2,4]triazolo[4,3-a]pyridin-3(2H)-one], the pIC50 is 9.03.
For the molecule `Cc1ccc(Cn2nc3n(c2=O)C(C(=O)N2CC(F)(F)C2)CCC3)cc1` (single isomer, unassigned) [Example 115, (5RS)-5-[(3,3-Difluoroazetidin-1-yl)carbonyl]-2-(4-methylbenzyl)-5,6,7,8-tetrahydro[1,2,4]triazolo[4,3-a]pyridin-3(2H)-one], the pIC50 was 8.96.
As for `O=C([C@@H]1CCCc2nn(Cc3cncc(Br)c3)c(=O)n21)N1CC[C@H](F)C1` [Example 509, (5S)-2-[(5-Bromopyridin-3-yl)methyl]-5-{[(3S)-3-fluoropyrrolidin-1-yl]carbonyl}-5,6,7,8-tetrahydro[1,2,4]triazolo[4,3-a]pyridin-3(2H)-one], the pIC50 is 9.15.
With `CN(C)C(=O)c1ccc(Cn2nc3n(c2=O)C(C(=O)N2CCCC2)CCC3)cc1` (racemic) [Example 156, N,N-Dimethyl-4-{[(5RS)-3-oxo-5-(pyrrolidin-1-ylcarbonyl)-5,6,7,8-tetrahydro[1,2,4]triazolo[4,3-a]pyridin-2(3H)-yl]methyl}benzamide], the pIC50 is 7.16.
With `O=C([C@@H]1CCCc2nn(Cc3ccc(Cl)nc3)c(=O)n21)N1CCC(F)(F)C1` [Example 423, (5S)-2-[(6-Chloropyridin-3-yl)methyl]-5-[(3,3-difluoropyrrolidin-1-yl)carbonyl]-5,6,7,8-tetrahydro[1,2,4]triazolo[4,3-a]pyridin-3(2H)-one], the pIC50 was 8.73.
For the molecule `O=C([C@@H]1CCCc2nn(Cc3ccc(Br)cn3)c(=O)n21)N1C[C@@H](F)[C@@H](F)C1` [Example 504, (5S)-2-[(5-Bromopyridin-2-yl)methyl]-5-{[(3R,4S)-3,4-difluoropyrrolidin-1-yl]carbonyl}-5,6,7,8-tetrahydro[1,2,4]triazolo[4,3-a]pyridin-3(2H)-one], the pIC50 was 8.74.
With `O=C([C@@H]1CCCc2nn(Cc3nc(C(F)(F)F)no3)c(=O)n21)N1C[C@@H](F)[C@@H](F)C1` [Example 500, (5S)-5-{[(3R,4S)-3,4-Difluoropyrrolidin-1-yl]carbonyl}-2-{[3-(trifluoromethyl)-1,2,4-oxadiazol-5-yl]methyl}-5,6,7,8-tetrahydro[1,2,4]triazolo[4,3-a]pyridin-3(2H)-one] the figure was 8.29.
Turning to `Cc1ccc(Cn2nc3n(c2=O)C(C(=O)N2CCCC2C)CCC3)cc1` (racemic) [Example 162, (5RS)-2-(4-Methylbenzyl)-5-[2(RS)-(2-methylpyrrolidin-1-yl)carbonyl]-5,6,7,8-tetrahydro[1,2,4]triazolo[4,3-a]pyridin-3(2H)-one], the pIC50 was 6.89.

For the origin of these results see patent publication US10722501B2 (BAYER AKTIENGESELLSCHAFT, priority 2016, dated 2020).
